From patent EP0321368A1, “Heterocyclic N-carbamoyl, N-thiocarbamoyl or N-amidino-aminomalonyl or -aminosuccinyl amide derivatives as sweetening agents” (NOFRE, Claude, priority 1987, dated 1989)
Converted amounts (≈) assume the structure as drawn.

Legend:
goûteurs expérimentés = assay: Sweetening power judged by a panel of eight experienced tasters against a sucrose reference solution; assay type: in vivo; conditions: for pouvoir édulcorant: weight basis
Text: Le pouvoir édulcorant des composés ainsi préparés a été évalué par un groupe de huit goûteurs expérimentés. Pour cela, les composés, en solution aqueuse à des concentrations variables, sont comparés, sur le plan gustatif, à une solution témoin de saccharose à 2 % et dans certains cas à 5 % et 10 ^o/o, c'est-à-dire à des concentrations correspondant à celles utilisées lors d'un usage courant. Le pouvoir sucrant des édulcorants de synthèse varie en effet suivant la concentration de la solution de saccharose utilisée comme référence. Le pouvoir édulcorant du composé testé par rapport au saccharose correspond alors au rapport pondéral qui existe entre le composé et le saccharose à égale intensité édulcorante, c'est-à-dire quand les saveurs sucrées de la solution du composé testé et de la solution témoin de saccharose sont considérées, par une majorité de goûteurs, avoir la meme intensité édulcorante.

[1] = Solubility in water at pH 3 (phosphate buffer) near 0 °C, saturated filtrate assayed by HPLC; assay type: physicochemical; conditions: for solubility at 1 h: aqueous buffer, pH 3 (phosphate buffer), 0° C, read-out: solubilité; for solubilité, fois plus élevée que celle de l'analogue carbocyclique 4-cyanophényle: ratio to exemple 4 of EP-B-0107597, pH 3, 0° C
Procedure: La solubilité a été mesurée de manière suivante. On met en suspension dans l'eau à pH 3 (tampon phosphate) et à température voisine de 0° C (ce qui correspond aux conditions de préparation et de stockage des boissons gazeuses) un excès du composé dont veut déterminer la solubilité. On soumet alors la suspension, toujours dans un bain de glace, à l'action des ultrasons pendant 60 min, puis on filtre (sur filtre Millipore Millex-HV 0,45 micromètre). Le composé, qui se trouve ainsi dissous à saturation dans le filtrat, est dosé par chromatographie liquide haute performance (HPLC) par rapport à une solution de référence de concentration connue.

[2] = compared with a 2 % sucrose solution

SMILES | pouvoir édulcorant (goûteurs expérimentés; [2]) | other results
COC(=O)[C@H](Cc1ccccc1)NC(=O)[C@H](CC(=O)O)NC(=O)Nc1ccc2c(c1)no[n+]2[O-] [Exemple 9, N-(1-oxyde-5-benzofurazanylcarbamoyl)-L-aspartyl-L-phénylalanine méthyl ester] | ~2 000 fois celui du saccharose | 
COC(=O)[C@H](Cc1ccccc1)NC(=O)[C@H](CC(=O)O)NC(=O)Nc1ccc2nsnc2c1 [Exemple 10, N-(5-benzothiofurazanylcarbamoyl)-L-aspartyl-L-phénylalanine méthyl ester] | ~500 fois celui du saccharose | 
N#Cc1ccc(NC(=O)N[C@@H](CC(=O)O)C(=O)NC(c2ccccc2)c2ccco2)cn1 (stereo partly drawn) [Exemple 5, acide N-(2-cyano-5-pyridylcarbamoyl)-L-aspartique N-[(RS)-alpha-(2-furyl)benzyl] alpha-monoamide] | ~700 fois celui du saccharose | 
COC(=O)[C@H](Cc1ccccc1)NC(=O)[C@H](CC(=O)O)NC(=S)Nc1cnc(C#N)nc1 [Exemple 7, N-(2-cyano-5-pyrimidinylthiocarbamoyl)-L-aspartyl-L-phénylalanine méthyl ester] | ~50 000 fois celui du saccharose | 
COC(=O)[C@H](Cc1ccccc1)NC(=O)[C@H](CC(=O)O)NC(=O)Nc1cccnc1 [Exemple 1, N-(3-pyridylcarbamoyl)-L-aspartyl-L-phénylalanine méthyl ester] | ~100 fois celui du saccharose | 
COC(=O)[C@H](Cc1ccccc1)NC(=O)[C@H](CC(=O)O)NC(=S)Nc1cccnc1 [Exemple 2, N-(3-pyridylthiocarbamoyl)-L-aspartyl-L-phénylalanine méthyl ester] | ~1 000 fois celui du saccharose | 
COC(=O)[C@H](Cc1ccccc1)NC(=O)[C@H](CC(=O)O)NC(=O)Nc1ccc(C#N)cc1 [exemple 4 du brevet EP-B-0107597, reference compound] |  | solubility at 1 h [1]: ~0.02 mg/mL (≈ 45.6 µM)
COC(=O)[C@H](Cc1ccccc1)NC(=O)[C@H](CC(=O)O)NC(=O)Nc1ccc2nonc2c1 [Exemple 8, N-(5-benzofurazanylcarbamoyl)-L-aspartyl-L-phénylalanine méthyl ester] | ~5 000 fois celui du saccharose | solubility at 1 h [1]: ~0.18 mg/mL (≈ 395 µM); solubilité, fois plus élevée que celle de l'analogue carbocyclique 4-cyanophényle [1]: ~9 fois
COC(=O)[C@H](Cc1ccccc1)NC(=O)[C@H](CC(=O)O)NC(=O)Nc1ccc2c(c1)OCO2 [Exemple 11, N-(3,4-méthylènedioxyphénylcarbamoyl)-L-aspartyl-L-phénylalanine méthyl ester] | ~50 fois celui du saccharose | 
COC(=O)[C@H](Cc1ccccc1)NC(=O)[C@H](CC(=O)O)NC(=S)Nc1ccc(OC)nc1 [Exemple 6, N-(2-méthoxy-5-pyridylthiocarbamoyl)-L-aspartyl-L-phénylalanine méthyl ester] | ~1 400 fois celui du saccharose | 
COC(=O)[C@H](Cc1ccccc1)NC(=O)[C@H](CC(=O)O)NC(=O)Nc1ccc(C#N)nc1 [Exemple 4, N-(2-cyano-5-pyridylcarbamoyl)-L-aspartyl-L-phénylalanine méthyl ester] | ~8 000 fois celui du saccharose | solubility at 1 h [1]: ~0.07 mg/mL (≈ 159 µM); solubilité, fois plus élevée que celle de l'analogue carbocyclique 4-cyanophényle [1]: ~3,5 fois; fois plus sucré que le saccharose (goûteurs expérimentés; concentration of the sucrose reference not given): 8 000 fois; pouvoir édulcorant (goûteurs expérimentés; compared with a 5 % sucrose solution): ~6 000 fois; pouvoir édulcorant (goûteurs expérimentés; compared with a 10 % sucrose solution): ~4 000 fois
COC(=O)[C@H](Cc1ccccc1)NC(=O)[C@H](CC(=O)O)NC(=O)Nc1ccc(Cl)nc1 [Exemple 3, N-(2-chloro-5-pyridylcarbamoyl)-L-aspartyl-L-phénylalanine méthyl ester] | ~500 fois celui du saccharose | 
